Experimental data published in patent US20260294769A1, “ASCORBIC ACID DERIVATIVES AND COSMETIC THEREOF” (SEIWA KASEI COMPANY, LIMITED, priority 2023, published 2026).
Where two headings read alike, the source gives them in different places.

Tests used:
[1] = test system: Normal human dermal fibroblasts (NHDF); experiment: Hyaluronic acid production promoting effect (ELISA of hyaluronic acid in supernatant); assay type: cell-based; details: 10 mM or less, 48 hours, control group set to 100%, N=3
Protocol: Normal human dermal fibroblasts (NHDF) were prepared in D-MEM containing 5% (v/v) fetal bovine serum to a cell density of 2.5×10^4 cells/well, and then pre-incubated on a 96-well plate for 24 hours. After removing the medium, samples prepared in serum-free D-MEM were added to each well and cultured for 48 hours. After the culture was completed, the amount of hyaluronic acid in the supernatant was quantified by ELISA. Measurements were performed in triplicate (N=3).
The amount of hyaluronic acid produced when the sample was measured at a concentration of 10 mM or less was compared with that of the control group, and the results (% values when the control group is set to 100%) are shown in Tables 18 to 20 based on the following criteria.

[2] = Stability Test-1: odor of 1% aqueous solutions adjusted to pH 7 stored at 50° C.; assay type: physicochemical; details: 1% aqueous solution pH 7, 50° C., 10 panelists
Protocol: (§1) For each of the samples of Synthesis Examples 1 to 6, 1% aqueous solutions were adjusted to pH 3, 5, 7, 8, and 9 with a dilute potassium hydroxide aqueous solution, and then placed in 50 mL screw tubes and sealed. […] Furthermore, the odor and coloration of the samples adjusted to pH 7 were evaluated based on the following methods and criteria, and the results are shown in Table 11.
(§2) • Evaluation was made by 10 panelists according to the following criteria. • 3: Almost odorless. • 2: There is a slight strange odor. • 1: A strong odor is detected. • Based on the results of the above evaluation, the following classification was made: • ◯: Total score of 10 panelists is 25 or more • Δ: Total score of 10 panelists is 16-24 • x: The total score of 10 panelists is 15 or less

[3] = Stability Test-1: residual rate of 1% aqueous solutions stored at 50° C. (HPLC); assay type: physicochemical; details: water; for remaining at 672 h: after 4 weeks
Protocol: as §1
• ⊚: 80% or more • ◯: 50% or more, less than 80% • Δ: 30% or more, less than 50% • x: Less than 30%

[4] = Stability Test-1: coloration of 1% aqueous solutions adjusted to pH 7 stored at 50° C.; assay type: physicochemical; details: 1% aqueous solution pH 7, 50° C., 10 panelists
Protocol: as §1
• Evaluation was made by 10 panelists according to the following criteria. • 3: Almost no change compared to immediately after preparation. • 2: Color changes compared to immediately after preparation. • 1: Strongly colored compared to immediately after preparation. • Based on the results of the above evaluation, the following classification was made: […]

[5] = Stability Test-2: coloration of cream stored at 50° C.; assay type: physicochemical; details: 10 panelists
From the text: • Evaluation was made by 10 panelists according to the following criteria. • 3: Almost no change compared to immediately after preparation. • 2: Color changes compared to immediately after preparation. • 1: Strongly colored compared to immediately after preparation. • Based on the results of the above evaluation, the following classification was made:
(§3) For each of the samples of Synthesis Examples 9 to 32, (a) and (b) shown in Table 12 were each heated and mixed. After cooling, (c) shown in Table 12 was added to prepare a cream with a pH of 7 or 9. […] The odor and coloration were also evaluated according to the same method and criteria as in Test Example 1. The results regarding the residual rate are shown in Tables 13 and 14, and the results regarding the odor and coloration are shown in Tables 15 and 16.

[6] = Stability Test-2: residual rate in cream of pH 7 or 9 stored at 50° C.; assay type: physicochemical
Protocol: as §3

[7] = Stability Test-2: odor of cream stored at 50° C.; assay type: physicochemical; details: 10 panelists
From the text: as §2, §3

[8] = pH 3, 50° C., after 2 weeks, 1% aqueous solution, read-out: Residual Rate
[9] = pH 3, 50° C., 1% aqueous solution
[10] = pH 5, 50° C., after 2 weeks, 1% aqueous solution, read-out: Residual Rate
[11] = pH 5, 50° C., 1% aqueous solution
[12] = pH 7, 50° C., after 2 weeks, 1% aqueous solution, read-out: Residual Rate
[13] = pH 7, 50° C., 1% aqueous solution
[14] = pH 8, 50° C., after 2 weeks, 1% aqueous solution, read-out: Residual Rate
[15] = pH 8, 50° C., 1% aqueous solution
[16] = pH 9, 50° C., after 2 weeks, 1% aqueous solution, read-out: Residual Rate
[17] = pH 9, 50° C., 1% aqueous solution
[18] = cream pH 7, 50° C., after 2 weeks, 20160 min
[19] = cream pH 7, 50° C., after 4 weeks, 40320 min
[20] = cream pH 9, 50° C., after 2 weeks, 20160 min
[21] = cream pH 9, 50° C., after 4 weeks, 40320 min

Row | Compound | Hyaluronic acid production-promoting effect [1] | Odor ([2]; after 2 weeks) | Odor ([2]; after 4 weeks) | remaining at 336 h [3, 8] | remaining at 672 h [3, 9] | remaining at 336 h [3, 10] | remaining at 672 h [3, 11] | remaining at 336 h [3, 12] | remaining at 672 h [3, 13] | remaining at 336 h [3, 14] | remaining at 672 h [3, 15] | remaining at 336 h [3, 16] | Coloration ([5]; after 2 weeks) | Coloration ([5]; after 4 weeks) | Residual Rate [6, 18] | Residual Rate [6, 19] | Residual Rate [6, 20] | Residual Rate [6, 21] | Odor ([7]; after 2 weeks) | Odor ([7]; after 4 weeks) | further results
1 | O=C1O[C@H]([C@@H](O)CO)C(O)=C1O [Ascorbic acid] | ± (<100%) | Δ (Total score of 10 panelists is 16-24) | x (The total score of 10 panelists is 15 or less) | 50 to 80% | 30 to 50% | 50 to 80% | < 30% | < 30% | < 30% | < 30% | < 30% | < 30% | – | – | – | – | – | – | – | – | remaining at 336 h ([3]; pH 7 to 9, 50° C., after two weeks, read-out: residual rates): < 30%; remaining at 672 h [3, 17]: < 30%; Coloration ([4]; after 2 weeks): Δ (Total score of 10 panelists is 16-24); Coloration ([4]; after 4 weeks): x (The total score of 10 panelists is 15 or less)
2 | O=C1OC(C(O)CO)C2=C1OCCO2 (stereo not shown) [Synthesis Example 1, 2,3-O-(1,2-ethanediyl) ascorbic acid] | – | ∘ (Total score of 10 panelists is 25 or more) | ∘ (Total score of 10 panelists is 25 or more) | ≥ 80% | ≥ 80% | ≥ 80% | ≥ 80% | 50 to 80% | 30 to 50% | 30 to 50% | < 30% | < 30% | – | – | – | – | – | – | – | – | remaining at 672 h [3, 17]: < 30%; Coloration ([4]; after 2 weeks): ∘ (Total score of 10 panelists is 25 or more); Coloration ([4]; after 4 weeks): Δ (Total score of 10 panelists is 16-24)
3 | O=C1OC(C(O)CO)C2=C1OCCCCO2 (stereo not shown) [Synthesis Example 3, 2,3-O-(1,4-butanediyl) ascorbic acid] | – | ∘ (Total score of 10 panelists is 25 or more) | ∘ (Total score of 10 panelists is 25 or more) | ≥ 80% | ≥ 80% | ≥ 80% | ≥ 80% | ≥ 80% | ≥ 80% | ≥ 80% | 50 to 80% | 50 to 80% | – | – | – | – | – | – | – | – | remaining at 672 h [3, 17]: 30 to 50%; Coloration ([4]; after 2 weeks): ∘ (Total score of 10 panelists is 25 or more); Coloration ([4]; after 4 weeks): ∘ (Total score of 10 panelists is 25 or more)
4 | O=C1OC(C(O)CO)C2=C1OC(CO)CO2 (stereo not shown) [Synthesis Example 5, 2,3-O-(1-hydroxymethyl-1,2-ethanediyl) ascorbic acid] | – | ∘ (Total score of 10 panelists is 25 or more) | ∘ (Total score of 10 panelists is 25 or more) | ≥ 80% | ≥ 80% | ≥ 80% | ≥ 80% | 50 to 80% | 30 to 50% | 50 to 80% | 30 to 50% | 50 to 80% | – | – | – | – | – | – | – | – | remaining at 672 h [3, 17]: 30 to 50%; Coloration ([4]; after 2 weeks): ∘ (Total score of 10 panelists is 25 or more); Coloration ([4]; after 4 weeks): ∘ (Total score of 10 panelists is 25 or more)
5 | CCCCCCCC(=O)OCC(O)C1OC(=O)C2=C1OCCCO2 (stereo not shown) [Synthesis Example 22, 6-O-octanoyl-2,3-O-(1,3-propanediyl) ascorbic acid] | ++ (120%<) | – | – | – | – | – | – | – | – | – | – | – | ◯ (Total score of 10 panelists is 25 or more) | ◯ (Total score of 10 panelists is 25 or more) | ⊚ (95% or more) | ⊚ (95% or more) | ⊚ (95% or more) | ⊚ (95% or more) | ◯ (Total score of 10 panelists is 25 or more) | Δ (Total score of 10 panelists is 16-24) | –
6 | CCCCCCCCCCCC(=O)OCC(O)C1OC(=O)C2=C1OCCCO2 (stereo not shown) [Synthesis Example 24, 6-O-lauroyl-2,3-O-(1,3-propanediyl) ascorbic acid] | ++ (120%<) | – | – | – | – | – | – | – | – | – | – | – | ◯ (Total score of 10 panelists is 25 or more) | ◯ (Total score of 10 panelists is 25 or more) | ⊚ (95% or more) | ⊚ (95% or more) | ⊚ (95% or more) | ⊚ (95% or more) | ◯ (Total score of 10 panelists is 25 or more) | Δ (Total score of 10 panelists is 16-24) | –
7 | CCCCCCCCCCCC(=O)OCC(OC(=O)CCCCCCCCCCC)C1OC(=O)C2=C1OCCCO2 (stereo not shown) [Synthesis Example 25, 5,6-O-dilauroyl-2,3-O-(1,3-propanediyl) ascorbic acid] | ++ (120%<) | – | – | – | – | – | – | – | – | – | – | – | ◯ (Total score of 10 panelists is 25 or more) | Δ (Total score of 10 panelists is 16-24) | ⊚ (95% or more) | ⊚ (95% or more) | ⊚ (95% or more) | ⊚ (95% or more) | ◯ (Total score of 10 panelists is 25 or more) | Δ (Total score of 10 panelists is 16-24) | –
8 | CCCCCCCCCCCCCCCC(=O)OCC(O)C1OC(=O)C2=C1OCCCO2 (stereo not shown) [Synthesis Example 26, 6-O-palmitoyl-2,3-O-(1,3-propanediyl) ascorbic acid] | ++ (120%<) | – | – | – | – | – | – | – | – | – | – | – | ◯ (Total score of 10 panelists is 25 or more) | Δ (Total score of 10 panelists is 16-24) | ⊚ (95% or more) | ⊚ (95% or more) | ⊚ (95% or more) | ◯ (85% or more, less than 95%) | ◯ (Total score of 10 panelists is 25 or more) | Δ (Total score of 10 panelists is 16-24) | –
9 | CC(C)CCCCCCCCCCCCCCC(=O)OCC(O)C1OC(=O)C2=C1OCCCO2 (stereo not shown) [Synthesis Example 28, 6-O-isostearoyl-2,3-O-(1,3-propanediyl) ascorbic acid] | ++ (120%<) | – | – | – | – | – | – | – | – | – | – | – | ◯ (Total score of 10 panelists is 25 or more) | ◯ (Total score of 10 panelists is 25 or more) | ⊚ (95% or more) | ⊚ (95% or more) | ⊚ (95% or more) | ⊚ (95% or more) | ◯ (Total score of 10 panelists is 25 or more) | Δ (Total score of 10 panelists is 16-24) | –
10 | CC(C)CCCCCCCCCCCCCCC(=O)OCC(O)C1OC(=O)C2=C1OCCO2 (stereo not shown) [Synthesis Example 31, 6-O-isostearoyl-2,3-O-(1,2-ethanediyl) ascorbic acid] | ++ (120%<) | – | – | – | – | – | – | – | – | – | – | – | ◯ (Total score of 10 panelists is 25 or more) | ◯ (Total score of 10 panelists is 25 or more) | ⊚ (95% or more) | ⊚ (95% or more) | ⊚ (95% or more) | ⊚ (95% or more) | ◯ (Total score of 10 panelists is 25 or more) | Δ (Total score of 10 panelists is 16-24) | –
